# Assay results published in patent EP4722207A1, “OXOISOINDOLINYL-SUBSTITUTED TETRAHYDROPYRIMIDINEDIONE DERIVATIVE AND USE THEREOF” (Gluetacs Therapeutics (Shanghai) Co., Ltd., priority 2023, dated 2024).
# Assays:
# [1] = target: T1, human Cereblon WT GST-tagged protein (Homo sapiens, UniProt Q96SW2); assay: CRBN-binding affinity, CEREBLON BINDING kit (HTRF); details: for inhibition at 0.5 µM: read-out: Inhibition Rate at 0.5 µM (%); for inhibition at 2 µM: read-out: Inhibition Rate at 2 µM (%)
# T1 construct: purchased CISBIO 64BDCRBNPEH
# T1 sequence (Q96SW2 whole entry): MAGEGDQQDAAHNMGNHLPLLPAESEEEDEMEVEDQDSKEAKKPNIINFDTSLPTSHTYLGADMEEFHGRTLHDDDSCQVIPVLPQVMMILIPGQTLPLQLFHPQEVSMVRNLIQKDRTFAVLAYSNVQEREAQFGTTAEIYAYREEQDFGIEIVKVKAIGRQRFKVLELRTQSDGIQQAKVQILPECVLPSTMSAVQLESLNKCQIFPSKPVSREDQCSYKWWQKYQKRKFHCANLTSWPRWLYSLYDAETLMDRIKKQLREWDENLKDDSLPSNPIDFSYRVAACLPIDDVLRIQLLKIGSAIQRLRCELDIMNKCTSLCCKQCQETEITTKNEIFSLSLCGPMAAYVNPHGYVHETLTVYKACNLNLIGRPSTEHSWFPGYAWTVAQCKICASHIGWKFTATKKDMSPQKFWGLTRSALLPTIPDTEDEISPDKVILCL
# Excerpt: The CEREBLON BINDING kits (specification: 10,000 tests; product number: Catalog # 64BDCRBNPEH; CISBIO company) was used to determine the CRBN binding ability of the compounds to be tested through a HTRF method (homogeneous time-resolved fluorescence). The specific methods are as follows: • 1. […] Specifically, diluent #9 (1X) solution was used as the diluent, and multiple concentration gradients were set. […] Into the 96-well plate, the diluted test compounds and corresponding detection reagents were added, resulting in final test compound concentrations of 2 µM and 0.5 µM, respectively. […] Then, 2.5 µL of human Cereblon WT GST-tagged protein solution was added to each well. Finally, 5 µL of the thoroughly mixed Thalidomide-Re reagent and GST Eu antibody working solution were added to each of the aforementioned wells. […] The blank control wells were sequentially added with 2.5 µL of diluent #9 (1X) solution, 2.5 µL of binding buffer, and 5 µL of thoroughly mixed Thalidomide-Re reagent and GST Eu antibody working solution. • 4. […] OD 620 nm control is the absorbance value of the blank control well at an emission wavelength of 620 nm. […] OD 620 nm Std0 is the absorbance value of the solvent control well at an emission wavelength of 620 nm.
# [2] = system: MM.1S; assay: Cell viability assay (CellTiter-Meiluncell Luminescent), tumor cell proliferation, MM.1S; details: Homo sapiens, MM1.S, 96 h; for inhibition at 0.01 µM: read-out: Inhibition Rate at 10 nM (%); for inhibition at 0.5 µM: read-out: Inhibition Rate at 500 nM (%)
# Method: (§1) The tumor cells used herein were cultured in a cell culture medium listed in table 2 at 37°C in an incubator with 5% CO2. Prior to experimentation, all cell lines used were correctly identified by STR profiling, and tested negative for mycoplasma contamination using a mycoplasma detection kit through routine screenings.
# (§2) On the following day, the test compounds of the present disclosure were subjected to serial dilution. […] Subsequently, 0.5 µL of the test compound dilution was transferred into the 96-well plate containing the cells, with each well containing 100 µL of cell culture medium. […] Into the 96-well plate, the diluted test compounds and corresponding detection reagents were added, resulting in final test compound concentrations of 500 nM and 10 nM, respectively. The experimental procedure is described below using the diluted 2 µM test compound as an example.
# (§3) After the cells were treated with the compounds of the present disclosure for a specified period, the cell viability assay reagent was added to the culture medium according to the kit's instructions to determine cell viability. […] All controls were treated using the same procedure as the compounds of the present disclosure. The growth inhibition curves for the compounds of the present disclosure were plotted using Prism GraphPad software, and the IC50 values were calculated therefrom.
# [3] = target: T2, IKZF2 (Homo sapiens, UniProt Q96SW2+Q9UKS7); assay: Western-blot assay, substrate protein degradation in hPBMCs: IKZF2; assay type: cell-based; details: 24 hours of compound treatment, 50 nM and 500 nM
# T2 construct: effects of the compounds of the present disclosure on the expression of target proteins in cells; endogenous in cells; host or cells: human PBMCs (hPBMCs)
# T2 sequence (Q9UKS7 whole entry): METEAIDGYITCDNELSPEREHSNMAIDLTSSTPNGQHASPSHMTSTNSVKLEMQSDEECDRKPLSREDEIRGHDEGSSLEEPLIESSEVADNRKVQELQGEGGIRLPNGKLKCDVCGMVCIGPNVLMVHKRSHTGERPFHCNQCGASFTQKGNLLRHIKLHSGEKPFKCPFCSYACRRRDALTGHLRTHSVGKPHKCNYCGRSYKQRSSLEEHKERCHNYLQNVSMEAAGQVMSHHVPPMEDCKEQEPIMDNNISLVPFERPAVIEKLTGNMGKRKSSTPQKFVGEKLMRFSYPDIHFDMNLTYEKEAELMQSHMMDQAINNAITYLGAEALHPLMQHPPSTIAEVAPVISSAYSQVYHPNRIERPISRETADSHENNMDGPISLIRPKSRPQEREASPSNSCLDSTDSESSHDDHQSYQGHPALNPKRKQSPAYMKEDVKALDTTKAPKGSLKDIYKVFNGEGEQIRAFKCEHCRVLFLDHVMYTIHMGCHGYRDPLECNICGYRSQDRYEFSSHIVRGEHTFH
# T2 sequence (Q96SW2 whole entry): as the sequence (Q96SW2 whole entry) above
# T2 sequence (Q16531 whole entry partner): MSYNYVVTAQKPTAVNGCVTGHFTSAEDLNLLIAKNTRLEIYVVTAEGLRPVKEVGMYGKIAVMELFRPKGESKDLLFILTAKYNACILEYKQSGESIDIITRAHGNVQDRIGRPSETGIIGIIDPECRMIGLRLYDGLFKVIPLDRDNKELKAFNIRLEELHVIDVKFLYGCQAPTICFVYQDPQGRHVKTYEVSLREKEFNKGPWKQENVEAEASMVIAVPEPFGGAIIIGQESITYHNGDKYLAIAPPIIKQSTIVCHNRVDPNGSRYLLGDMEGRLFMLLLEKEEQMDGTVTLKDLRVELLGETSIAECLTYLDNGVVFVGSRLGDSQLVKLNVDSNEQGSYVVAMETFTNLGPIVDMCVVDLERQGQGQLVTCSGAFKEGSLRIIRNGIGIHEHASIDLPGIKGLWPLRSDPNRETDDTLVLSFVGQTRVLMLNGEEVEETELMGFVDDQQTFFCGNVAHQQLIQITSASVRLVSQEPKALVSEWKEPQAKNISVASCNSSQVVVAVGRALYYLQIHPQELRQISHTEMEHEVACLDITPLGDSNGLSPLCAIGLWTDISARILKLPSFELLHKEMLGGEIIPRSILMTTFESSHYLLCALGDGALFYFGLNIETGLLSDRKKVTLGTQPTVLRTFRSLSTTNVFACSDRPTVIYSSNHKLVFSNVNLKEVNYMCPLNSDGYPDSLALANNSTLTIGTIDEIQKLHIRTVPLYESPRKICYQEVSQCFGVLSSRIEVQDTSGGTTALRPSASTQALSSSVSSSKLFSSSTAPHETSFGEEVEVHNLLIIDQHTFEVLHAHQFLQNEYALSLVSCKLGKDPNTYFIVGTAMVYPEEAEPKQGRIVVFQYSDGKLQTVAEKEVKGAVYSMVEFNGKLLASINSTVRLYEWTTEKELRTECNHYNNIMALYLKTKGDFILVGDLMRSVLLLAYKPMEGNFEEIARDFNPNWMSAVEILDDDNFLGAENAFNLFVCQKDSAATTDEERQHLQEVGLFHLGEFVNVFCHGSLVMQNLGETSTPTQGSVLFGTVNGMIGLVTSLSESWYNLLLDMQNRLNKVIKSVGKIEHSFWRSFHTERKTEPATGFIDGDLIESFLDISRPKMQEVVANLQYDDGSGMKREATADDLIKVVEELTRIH
# [4] = system: H292; assay: Cell viability assay (CellTiter-Meiluncell Luminescent), tumor cell proliferation, H292; details: Homo sapiens, NCI-H292, 96 h; for inhibition at 0.01 µM: read-out: Inhibition Rate at 10 nM (%); for inhibition at 0.5 µM: read-out: Inhibition Rate at 500 nM (%)
# [5] = target: T3, IKZF3 (Homo sapiens, UniProt Q96SW2+Q9UKT9); assay: Western-blot assay, substrate protein degradation in hPBMCs: IKZF3; assay type: cell-based; details: 24 hours of compound treatment, 50 nM and 500 nM
# T3 construct: effects of the compounds of the present disclosure on the expression of target proteins in cells; endogenous in cells; host or cells: human PBMCs (hPBMCs)
# T3 sequence (Q9UKT9 whole entry): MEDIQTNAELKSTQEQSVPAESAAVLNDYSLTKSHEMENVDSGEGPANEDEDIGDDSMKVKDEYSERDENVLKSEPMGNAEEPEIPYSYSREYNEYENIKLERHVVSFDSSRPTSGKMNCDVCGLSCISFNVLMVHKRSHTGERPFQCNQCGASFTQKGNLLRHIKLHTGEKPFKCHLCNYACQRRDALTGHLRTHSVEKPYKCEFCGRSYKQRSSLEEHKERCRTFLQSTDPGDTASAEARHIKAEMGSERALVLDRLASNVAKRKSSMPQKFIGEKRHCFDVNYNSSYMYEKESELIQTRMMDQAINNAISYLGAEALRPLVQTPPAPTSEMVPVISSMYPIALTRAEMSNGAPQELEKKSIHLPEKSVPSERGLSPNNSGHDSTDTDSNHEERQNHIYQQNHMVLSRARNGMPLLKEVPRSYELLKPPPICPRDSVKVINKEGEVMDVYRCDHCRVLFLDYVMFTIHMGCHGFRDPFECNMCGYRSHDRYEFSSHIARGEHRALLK
# T3 sequence (Q96SW2 whole entry): as the sequence (Q96SW2 whole entry) above
# T3 sequence (Q16531 whole entry partner): as the sequence (Q16531 whole entry partner) above
# [6] = system: MV-4-11; assay: Cell viability assay (CellTiter-Meiluncell Luminescent), tumor cell proliferation, MV-4-11; details: Homo sapiens, MV4-11, 96 h; for inhibition at 0.01 µM: read-out: Inhibition Rate at 10 nM (%); for inhibition at 0.5 µM: read-out: Inhibition Rate at 500 nM (%)
# [7] = target: T4, CK1α (Homo sapiens, UniProt P48729+Q96SW2); assay: Western-blot assay, substrate protein degradation in hPBMCs: CK1α; assay type: cell-based; details: 24 hours of compound treatment, 50 nM and 500 nM
# T4 construct: effects of the compounds of the present disclosure on the expression of target proteins in cells; endogenous in cells; host or cells: human PBMCs (hPBMCs)
# T4 sequence (P48729 whole entry): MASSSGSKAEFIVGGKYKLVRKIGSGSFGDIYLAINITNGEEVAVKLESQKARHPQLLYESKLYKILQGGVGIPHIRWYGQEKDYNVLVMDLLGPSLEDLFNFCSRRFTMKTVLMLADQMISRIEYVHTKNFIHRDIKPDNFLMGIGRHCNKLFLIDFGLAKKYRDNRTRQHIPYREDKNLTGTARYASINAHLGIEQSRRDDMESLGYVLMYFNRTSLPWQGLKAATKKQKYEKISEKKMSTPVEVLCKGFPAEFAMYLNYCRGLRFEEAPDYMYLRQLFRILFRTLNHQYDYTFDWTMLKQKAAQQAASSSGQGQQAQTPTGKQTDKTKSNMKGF
# T4 sequence (Q96SW2 whole entry): as the sequence (Q96SW2 whole entry) above
# T4 sequence (Q16531 whole entry partner): as the sequence (Q16531 whole entry partner) above
# [8] = target: T5, IKZF1 (Homo sapiens, UniProt Q13422+Q96SW2); assay: Western-blot assay, substrate protein degradation in hPBMCs: IKZF1; assay type: cell-based; details: 24 hours of compound treatment, 50 nM and 500 nM
# T5 construct: effects of the compounds of the present disclosure on the expression of target proteins in cells; endogenous in cells; host or cells: human PBMCs (hPBMCs)
# [9] = system: H2228; assay: Cell viability assay (CellTiter-Meiluncell Luminescent), tumor cell proliferation, H2228; details: Homo sapiens, NCI-H2228, 96 h; for inhibition at 0.01 µM: read-out: Inhibition Rate at 10 nM (%); for inhibition at 0.5 µM: read-out: Inhibition Rate at 500 nM (%)
# Method: as §1, §2, §3
# [10] = target: T6, WEE1 (Homo sapiens, UniProt P30291+Q96SW2); assay: Western-blot assay, substrate protein degradation in hPBMCs: WEE1; assay type: cell-based; details: 24 hours of compound treatment, 50 nM and 500 nM
# T6 construct: effects of the compounds of the present disclosure on the expression of target proteins in cells; endogenous in cells; host or cells: human PBMCs (hPBMCs)
# T6 sequence (P30291 whole entry): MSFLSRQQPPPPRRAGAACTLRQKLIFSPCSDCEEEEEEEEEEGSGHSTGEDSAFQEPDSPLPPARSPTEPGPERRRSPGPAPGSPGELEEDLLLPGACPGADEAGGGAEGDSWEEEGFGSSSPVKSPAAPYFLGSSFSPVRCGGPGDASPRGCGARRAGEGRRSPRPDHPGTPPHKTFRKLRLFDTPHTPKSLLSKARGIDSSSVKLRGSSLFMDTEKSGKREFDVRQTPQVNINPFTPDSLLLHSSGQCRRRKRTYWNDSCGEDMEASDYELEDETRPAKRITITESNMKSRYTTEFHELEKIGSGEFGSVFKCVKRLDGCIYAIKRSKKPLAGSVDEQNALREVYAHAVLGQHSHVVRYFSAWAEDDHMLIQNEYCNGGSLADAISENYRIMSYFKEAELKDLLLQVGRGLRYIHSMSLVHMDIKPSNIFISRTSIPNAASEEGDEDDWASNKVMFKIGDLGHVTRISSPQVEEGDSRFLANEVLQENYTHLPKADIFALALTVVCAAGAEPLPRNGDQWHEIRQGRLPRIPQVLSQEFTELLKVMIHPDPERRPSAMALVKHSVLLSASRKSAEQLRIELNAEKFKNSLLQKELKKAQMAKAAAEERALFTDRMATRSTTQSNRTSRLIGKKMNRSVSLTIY
# T6 sequence (Q96SW2 whole entry): as the sequence (Q96SW2 whole entry) above
# T6 sequence (Q16531 whole entry partner): as the sequence (Q16531 whole entry partner) above
# [11] = target: T7, GSPT1 (Homo sapiens, UniProt P15170+Q96SW2); assay: Western-blot assay, substrate protein degradation in hPBMCs: GSPT1; assay type: cell-based; details: 24 hours of compound treatment, 50 nM and 500 nM
# T7 construct: effects of the compounds of the present disclosure on the expression of target proteins in cells; endogenous in cells; host or cells: human PBMCs (hPBMCs)
# T7 sequence (P15170 whole entry): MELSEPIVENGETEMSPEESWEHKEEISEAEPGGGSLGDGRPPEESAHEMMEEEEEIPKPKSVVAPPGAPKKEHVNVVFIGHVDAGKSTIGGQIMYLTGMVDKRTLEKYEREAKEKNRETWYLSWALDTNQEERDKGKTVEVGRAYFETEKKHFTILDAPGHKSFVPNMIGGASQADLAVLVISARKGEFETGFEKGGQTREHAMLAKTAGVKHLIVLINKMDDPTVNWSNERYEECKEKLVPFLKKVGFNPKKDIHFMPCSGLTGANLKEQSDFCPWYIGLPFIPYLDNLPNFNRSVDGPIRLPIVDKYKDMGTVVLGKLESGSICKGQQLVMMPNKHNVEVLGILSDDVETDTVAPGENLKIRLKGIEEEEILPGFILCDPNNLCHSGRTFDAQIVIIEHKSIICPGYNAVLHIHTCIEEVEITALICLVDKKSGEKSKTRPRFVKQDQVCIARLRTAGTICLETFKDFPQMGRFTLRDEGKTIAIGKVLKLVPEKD
# T7 sequence (Q96SW2 whole entry): as the sequence (Q96SW2 whole entry) above
# T7 sequence (Q16531 whole entry partner): as the sequence (Q16531 whole entry partner) above
# [12] = system: MDA-MB-231; assay: Cell viability assay (CellTiter-Meiluncell Luminescent), tumor cell proliferation, MDA-MB-231; details: Homo sapiens, MDA-MB-231, 96 h; for inhibition at 0.01 µM: read-out: Inhibition Rate at 10 nM (%); for inhibition at 0.5 µM: read-out: Inhibition Rate at 500 nM (%)
SMILES,IC50 ([1]; 3 hours at room temperature) [nM],"IC50 ([2]; read-out: inhibitory activity (IC50, nM) against tumor cells proliferation, MM.1S) [nM]",inhibition at 0.5 µM [1] [%],inhibition at 2 µM [1] [%],substrate protein remaining % IKZF2 [3],inhibition at 0.01 µM [4] [%],inhibition at 0.5 µM [4] [%],substrate protein remaining % IKZF3 [5],inhibition at 0.01 µM [6] [%],inhibition at 0.5 µM [6] [%],substrate protein remaining % CK1α [7],substrate protein remaining % IKZF1 [8],inhibition at 0.01 µM [9] [%],inhibition at 0.5 µM [9] [%],inhibition at 0.01 µM [2] [%],inhibition at 0.5 µM [2] [%],substrate protein remaining % WEE1 [10],substrate protein remaining % GSPT1 [11],inhibition at 0.01 µM [12] [%],inhibition at 0.5 µM [12] [%]
"N#Cc1ccc(N2CCN(Cc3ccc(COc4cccc5c4CN(N4CCC(=O)NC4=O)C5=O)cc3)CC2)c(F)c1 [GT-06132, 4-(4-(4-(((2-(2,4-dioxotetrahydropyrimidin-1(2H)-yl)-1-oxoisoindolin-4-yl)oxy)methyl)benzyl)piperazin-1-yl)-3-fluorobenzonitrile]",1000 to 1500,100 to 300,–,–,–,–,–,–,–,–,–,–,–,–,–,–,–,–,–,–
"O=C1CCN(N2Cc3cc(CN4CCN(c5ncnc6scc(-c7ccccc7)c56)CC4)ccc3C2=O)C(=O)N1 [GT-08065, 1-(1-oxo-5-((4-(5-phenylthieno[2,3-d]pyrimidin-4-yl)piperazin-1-yl)methyl)isoindolin-2-yl)dihydropyrimidine-2,4(1H,3H)-dione]",–,–,20 to 30,60 to 80,A (0% ≤ substrate protein remaining % ≤ 80%),20 to 40,20 to 40,B (80%< substrate protein remaining %≤ 100%),30 to 40,10 to 18,B (80%< substrate protein remaining %≤ 100%),B (80%< substrate protein remaining %≤ 100%),20 to 25,25 to 30,20 to 30,20 to 30,B (80%< substrate protein remaining %≤ 100%),B (80%< substrate protein remaining %≤ 100%),–,–
"Cc1nc(N2CCN(Cc3ccc4c(c3)CN(N3CCC(=O)NC3=O)C4=O)CC2)c2c(-c3ccccc3)csc2n1 [GT-08066, 1-(5-((4-(2-methyl-5-phenylthieno[2,3-d]pyrimidin-4-yl)piperazin-1-yl)methyl)-1-oxoisoindolin-2-yl)dihydropyrimidine-2,4(1H,3H)-dione]",–,–,20 to 30,60 to 80,A (0% ≤ substrate protein remaining % ≤ 80%),20 to 40,20 to 40,B (80%< substrate protein remaining %≤ 100%),18 to 25,10 to 18,A (0% ≤ substrate protein remaining % ≤ 80%),B (80%< substrate protein remaining %≤ 100%),–,–,–,–,B (80%< substrate protein remaining %≤ 100%),B (80%< substrate protein remaining %≤ 100%),15 to 18,15 to 18
"O=C1CCN(N2Cc3cc(CN4CCN(c5ncnc6sc7c(c56)CCC7)CC4)ccc3C2=O)C(=O)N1 [GT-08079, 1-(5-((4-(6,7-dihydro-5H-cyclopenta[4,5]thieno[2,3-d]pyrimidin-4-yl)piperazin-1-yl)methyl)-1-oxoisoindolin-2-yl)dihydropyrimidine-2,4(1H,3H)-dione]",–,–,20 to 30,53 to 60,B (80%< substrate protein remaining %≤ 100%),20 to 40,20 to 40,B (80%< substrate protein remaining %≤ 100%),40 to 60,40 to 60,A (0% ≤ substrate protein remaining % ≤ 80%),B (80%< substrate protein remaining %≤ 100%),15 to 20,20 to 25,–,–,A (0% ≤ substrate protein remaining % ≤ 80%),A (0% ≤ substrate protein remaining % ≤ 80%),18 to 25,10 to 15
"Cc1nc(N2CCN(Cc3ccc4c(c3)CN(N3CCC(=O)NC3=O)C4=O)CC2)c2c3c(sc2n1)CCC3 [GT-08080, 1-(5-((4-(2-methyl-6,7-dihydro-5H-cyclopenta[4,5]thieno[2,3-d]pyrimidin-4-yl)piperazin-1-yl)methyl)-1-oxoisoindolin-2-yl)dihydropyrimidine-2,4(1H,3H)-dione]",–,–,20 to 30,53 to 60,B (80%< substrate protein remaining %≤ 100%),40 to 60,20 to 40,B (80%< substrate protein remaining %≤ 100%),–,–,A (0% ≤ substrate protein remaining % ≤ 80%),B (80%< substrate protein remaining %≤ 100%),30 to 40,20 to 25,–,–,A (0% ≤ substrate protein remaining % ≤ 80%),A (0% ≤ substrate protein remaining % ≤ 80%),18 to 25,15 to 18
"O=C1CCN(N2Cc3cc(CN4CC=C(c5ncnc6sc(-c7ccccc7)cc56)CC4)ccc3C2=O)C(=O)N1 [GT-08173, 1-(1-oxo-5-((4-(6-phenylthieno[2,3-d]pyrimidin-4-yl)-3,6-dihydropyridin-1(2H)-yl)methyl)isoindolin-2-yl)dihydropyrimidine-2,4(1H,3H)-dione]",–,–,20 to 30,53 to 60,–,–,–,–,10 to 18,80 to 100,–,–,5 to 10,40 to 60,-5 to 0,80 to 100,–,–,10 to 15,60 to 80
"O=C1CCN(N2Cc3cc(CN4CC=C(c5ncnc6scc(-c7ccccc7)c56)CC4)ccc3C2=O)C(=O)N1 [GT-08174, 1-(1-oxo-5-((4-(5-phenylthieno[2,3-d]pyrimidin-4-yl)-3,6-dihydropyridin-1(2H)-yl)methyl)isoindolin-2-yl)dihydropyrimidine-2,4(1H,3H)-dione]",–,–,20 to 30,53 to 60,–,10 to 15,20 to 40,–,25 to 30,10 to 18,–,–,15 to 20,20 to 25,–,–,–,–,18 to 25,25 to 40
